Measured values reported in ChEMBL document CHEMBL1201862, “PubChem BioAssay data set” (2004).
The source made the active and inactive calls.

Assays:
[1] = molecular target: FAD-linked sulfhydryl oxidase ALR (Homo sapiens, UniProt P55789); assay: inhibitors of human ALR sulfhydryl oxidase, dose response, biochemical, H2O2 detection, luminescence, cherry-pick (AID 493248)
[2] = HEp-2 cell cytotoxicity, dose response, cytotoxicity control for RSV inhibitor project, HTS (AID 2410); type: functional; settings: human respiratory syncytial virus
[3] = inhibitors of firefly luciferase expression or activity, dose response, H4 neuroglioma cells, luminescence (AID 1990); type: functional, cell-based
[4] = Luminescence Cell-Based Dose Response HTS to Identify Inhibitors of 5'UTR Stem-Loop Driven Prion Protein mRNA Translation in H4 Neuroglioblastoma Cells. [Related pubchem assays: 1827 (Project Summary), 1813 (Primary HTS)]; type: functional
[5] = inhibitors of SNCA 5'UTR-driven reporter translation, confirmation, H4 neuroglioma cells, luminescence (AID 1988); type: functional, cell-based
[6] = Luminescence Cell-Based Dose Confirmation HTS to Identify Activators of 5'UTR Stem-Loop Driven Alpha-Synuclein mRNA Translation in H4 Neuroglioblastoma Cells. [Related pubchem assays: 1829 (Project Summary), 1814 (Primary HTS)]; type: functional
[7] = Luminescence Cell-Based Dose Response HTS to Identify Activators of Luciferase Translation or Activity in H4 […] Cells. [Related pubchem assays: 1829 (Project Summary), 1814 (Primary HTS)]; type: functional
[8] = system: Streptococcus sp. 'group A'; assay: growth inhibition of control SK(-) GAS strain, dose response, counter-screen for streptokinase expression inhibitor project, luminescence, kanamycin, BacTiterGlo, confirmation (AID 1900); type: functional, organism-based
H4 = assay: Luminescence Cell-Based Dose Response HTS to Identify Activators of 5'UTR Stem-Loop Driven Prion Protein mRNA Translation in H4 Neuroglioblastoma Cells. [Related pubchem assays: 1829 (Project Summary), 1814 (Primary HTS)]; type: functional; settings: Homo sapiens
Streptokinase A = molecular target: T1, Streptokinase A (Streptococcus pyogenes serotype M1, UniProt P10520); assay: S. pyogenes streptokinase expression inhibitors, potency, dose response, plasminogen activation absorbance, OD405 (AID 1914); type: functional, Streptococcus pyogenes M1 GAS;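 further: secreted streptokinase activity via plasminogen activation per viability signal from cell pellet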
T1 sequence (P10520 whole entry): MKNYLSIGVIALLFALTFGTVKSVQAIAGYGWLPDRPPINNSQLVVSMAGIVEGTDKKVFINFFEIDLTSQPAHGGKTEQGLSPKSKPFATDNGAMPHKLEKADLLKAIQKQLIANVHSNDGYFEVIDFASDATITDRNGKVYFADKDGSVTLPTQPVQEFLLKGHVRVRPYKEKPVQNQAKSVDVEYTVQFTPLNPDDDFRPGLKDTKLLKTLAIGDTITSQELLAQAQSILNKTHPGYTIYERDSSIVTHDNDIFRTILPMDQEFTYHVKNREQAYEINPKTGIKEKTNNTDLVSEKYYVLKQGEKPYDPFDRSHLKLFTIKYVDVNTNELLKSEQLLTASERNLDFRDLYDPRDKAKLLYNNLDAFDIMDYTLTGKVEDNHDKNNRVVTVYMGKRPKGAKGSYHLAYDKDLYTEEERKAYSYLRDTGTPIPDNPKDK

Streptococcus = assay: Group A Streptococcus viability loss, dose response, counter-screen for streptokinase expression inhibitor project, luminescence, BacTiterGlo (AID 1915); type: functional, organism-based;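 further: potency for reduction of bacterial viability or growth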
Cytochrome P450 2C19 = Cytochrome P450 2C19 (Homo sapiens, UniProt P33261); assay: Cytochrome panel assay with activity outcomes. Panel member name: p450-cyp2c19 Compounds with AC50 equal or less than 10 uM are considered active; type: functional; settings: read-out: AC50
Cytochrome P450 1A2 = molecular target: T2, Cytochrome P450 1A2 (Homo sapiens, UniProt P05177);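 further: PubChem cytochrome P450 panel assay, CYP1A2 panel member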
T2 sequence (P05177 whole entry): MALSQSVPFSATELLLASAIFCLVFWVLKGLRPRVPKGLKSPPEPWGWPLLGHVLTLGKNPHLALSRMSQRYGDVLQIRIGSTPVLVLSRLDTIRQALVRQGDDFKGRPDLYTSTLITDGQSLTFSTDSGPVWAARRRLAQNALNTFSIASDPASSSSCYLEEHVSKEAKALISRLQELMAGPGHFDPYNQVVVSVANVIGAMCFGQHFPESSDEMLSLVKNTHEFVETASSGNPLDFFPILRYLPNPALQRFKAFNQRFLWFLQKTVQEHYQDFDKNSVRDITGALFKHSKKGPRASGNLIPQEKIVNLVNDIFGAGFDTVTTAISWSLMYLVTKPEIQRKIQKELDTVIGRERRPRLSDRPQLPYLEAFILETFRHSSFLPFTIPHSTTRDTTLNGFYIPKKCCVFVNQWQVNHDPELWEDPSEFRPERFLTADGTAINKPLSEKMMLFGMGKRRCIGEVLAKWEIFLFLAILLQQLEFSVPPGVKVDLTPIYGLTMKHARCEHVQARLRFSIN

FAD-linked sulfhydryl oxidase ALR, sequence (P55789 whole entry): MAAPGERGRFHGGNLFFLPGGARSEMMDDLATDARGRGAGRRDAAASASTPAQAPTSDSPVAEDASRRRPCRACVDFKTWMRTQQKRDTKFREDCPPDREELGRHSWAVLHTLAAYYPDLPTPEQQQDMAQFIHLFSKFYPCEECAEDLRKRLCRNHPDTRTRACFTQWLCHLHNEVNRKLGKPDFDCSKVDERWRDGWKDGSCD
Cytochrome P450 2C19, sequence (P33261 whole entry): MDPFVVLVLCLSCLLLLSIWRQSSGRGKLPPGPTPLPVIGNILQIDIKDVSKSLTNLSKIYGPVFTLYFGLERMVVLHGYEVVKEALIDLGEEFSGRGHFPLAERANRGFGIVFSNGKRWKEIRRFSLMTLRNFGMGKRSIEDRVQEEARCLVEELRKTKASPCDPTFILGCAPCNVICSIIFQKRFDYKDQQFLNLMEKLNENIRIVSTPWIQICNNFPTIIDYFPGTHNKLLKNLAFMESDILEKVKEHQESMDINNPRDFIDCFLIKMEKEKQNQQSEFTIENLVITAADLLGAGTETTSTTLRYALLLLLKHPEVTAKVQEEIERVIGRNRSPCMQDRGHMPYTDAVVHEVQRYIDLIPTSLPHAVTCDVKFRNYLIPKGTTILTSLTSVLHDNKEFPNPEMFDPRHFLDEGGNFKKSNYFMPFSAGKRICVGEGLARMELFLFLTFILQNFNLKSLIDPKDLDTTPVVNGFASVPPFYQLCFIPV

In the case of `COc1cccc(-n2cnc3cccc(N)c32)c1`, the AC50 [1] is reported as 24.2 µM (active).
For `Sc1nnc2n1CCCN2`, the AC50 [1] was 11.1 µM (active).
In the case of `O=C(O)c1ccc(NC(=O)c2cn(-c3ccccc3)nc2-c2cccc(Cl)c2)cc1`, the CC50 [2] is reported as 33.6 µM (active).
With `Fc1ccc(-c2ccnc3nc(-n4cccc4)nn23)cc1` the EC50 [3] was 39.7 µM (active), the EC50 [4] was > 120 µM (not active) and the EC50 [5] was > 120 µM (not active).
For `COc1cccc(C(=O)Nc2ccc3[nH]c(O)nc3c2)c1OC`, the EC50 [3] was < 0.1 µM (active) and the EC50 [4] was > 120 µM (not active).
In the case of `COc1ccc(/C=N/Nc2nc(Nc3ccccc3)nc(N3CCCCC3)n2)cc1OC`, the EC50 [6] is reported as 9.49 µM (active), the EC50 [7] is reported as 8.28 µM (active) and the EC50 [8] is reported as 16.1 µM (active). For the same molecule, the EC50 (H4) was 23.1 µM (active), the EC50 (Streptokinase A) was > 150 µM (not active) and the EC50 (Streptococcus) was 46.3 µM (active).
With `CCc1ccc(NC(=O)C2CCN(S(=O)(=O)c3ccc4c(c3)NC(=O)CO4)CC2)cc1` the EC50 [3] was > 120 µM (not active), the EC50 [4] was > 120 µM (not active) and the EC50 [5] was > 120 µM (not active).
In the case of `Fc1ccc(-n2nnnc2S)cc1N1CCCC1`, the AC50 [1] is reported as 5.21 µM (active).
With `COc1cc(C(=O)NNC(=S)NC(=O)c2ccccc2C)cc(OC)c1OC` the EC50 [8] was 2.06 µM (active), the EC50 (Streptokinase A) was > 150 µM (not active) and the EC50 (Streptococcus) was 49.5 µM (active).
With `CNC(=O)c1cccn(Cc2cccc(C(F)(F)F)c2)c1=O` the EC50 [3] was > 120 µM (not active), the EC50 [4] was 42.8 µM (active) and the EC50 [5] was 14.6 µM (active).
In the case of `COc1ccc(CCN2CC3=C(C2=O)C(c2ccccc2)NC(=O)N3C)cc1OC` (stereo not given), the EC50 [3] is reported as 24.4 µM (active), the EC50 [4] is reported as > 120 µM (not active) and the EC50 [5] is reported as > 120 µM (not active).
For `O=C1c2ccccc2NC(c2ccccc2O)N1NS(=O)(=O)c1ccccc1` (stereo not given), the EC50 [6] was > 120 µM (not active), the EC50 [7] was > 60 µM (not active) and the EC50 (H4) was > 120 µM (not active).
With `C(/C=C/c1ccco1)=N/N1CCN(c2ccccc2)CC1` the EC50 [6] was 2.21 µM (active), the EC50 [7] was 17.5 µM (active) and the AC50 (Cytochrome P450 2C19) was 2 µM (inconclusive). The AC50 (Cytochrome P450 1A2) was 8.91 µM (inconclusive).
For `Cc1ccc(C2Cc3cc(O)c(O)cc3CN2)cc1` (stereo not given), the AC50 [1] was 4.2 µM (active).
In the case of `Oc1ccc(/C=N/Nc2cccc3cccnc23)c(O)c1`, the EC50 (H4) is reported as 18.7 µM (active).
In the case of `O=C(c1cnn2c(C(F)(F)F)cc(-c3ccc(F)cc3)nc12)N1CCc2ccccc2C1`, the EC50 [8] is reported as 14 µM (active), the EC50 (Streptokinase A) is reported as 37 µM (active) and the EC50 (Streptococcus) is reported as > 150 µM (not active).
With `FC(F)(F)c1cc(CCN2C(=S)NC[C@@H]2CC2CCCCC2)cc(C(F)(F)F)c1` the EC50 (Streptokinase A) was 7 µM (active).
In the case of `O=C(Cc1ccc(Cl)cc1)N1CCN(c2ccccc2)CC1`, the AC50 [1] is reported as 17.8 µM (active).
With `CC(C)(C)CC(C)(C)Nc1c(-c2ccc(O)cc2)nc2cnccn12` the EC50 [3] was 13.9 µM (active), the EC50 [4] was 14.9 µM (active) and the EC50 [5] was 107 µM (active).
In the case of `Nc1cccc(Nc2ccccc2)c1`, the AC50 [1] is reported as 2.5 µM (active).
In the case of `CC(C)C(=O)Nc1ccc(C(=O)NNC(=S)NC(=O)c2cccs2)cc1`, the EC50 [8] is reported as 6.98 µM (active), the EC50 (Streptokinase A) is reported as > 150 µM (not active) and the EC50 (Streptococcus) is reported as 34.8 µM (active).
With `CC(=O)Nc1sc(NC(=O)c2ccc([N+](=O)[O-])cc2)nc1-c1cccs1` the EC50 [8] was > 150 µM (not active), the EC50 (Streptokinase A) was > 150 µM (not active) and the EC50 (Streptococcus) was > 150 µM (not active).
In the case of `COc1cc(N2CCCC2)c(OC)cc1/C=C(/C#N)c1cccc(Br)c1`, the CC50 [2] is reported as > 50 µM (active).
With `CSc1ccc(CC(=O)N2CCC(n3nccc3NC(=O)C3CC3)CC2)cc1` the EC50 [6] was 15.2 µM (active), the EC50 [7] was 4.85 µM (active) and the EC50 (H4) was > 120 µM (not active).
